These results are taken from patent US12570671B2 (BRISTOL-MYERS SQUIBB COMPANY, priority 2020, dated 2026).

The target of experiment [1] is Ikaros (Homo sapiens, UniProt Q13422+Q96SW2). The experiment can be described thus: Helios Cellular Degradation Assay (Ikaros readout). Also noted: endogenous in cells; host or cells: Jurkat. Conditions: Jurkat cells, 72 h incubation, Ikaros-Alexa488 antibody staining, flow cytometry; read-out: Ikaros Jurkat IC50. The experiment is classed as cell-based. In a few lines: (§1)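 Jurkat cells (80,000/well, RPMI+10% FBS) were treated with compound for 72 h at 37° C. After fixation and permeabilization they were stained with fluorescent antibodies to Helios, Ikaros and Aiolos. Intracellular protein levels were quantified by flow cytometry.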
Chain of Ikaros (Q13422 whole entry): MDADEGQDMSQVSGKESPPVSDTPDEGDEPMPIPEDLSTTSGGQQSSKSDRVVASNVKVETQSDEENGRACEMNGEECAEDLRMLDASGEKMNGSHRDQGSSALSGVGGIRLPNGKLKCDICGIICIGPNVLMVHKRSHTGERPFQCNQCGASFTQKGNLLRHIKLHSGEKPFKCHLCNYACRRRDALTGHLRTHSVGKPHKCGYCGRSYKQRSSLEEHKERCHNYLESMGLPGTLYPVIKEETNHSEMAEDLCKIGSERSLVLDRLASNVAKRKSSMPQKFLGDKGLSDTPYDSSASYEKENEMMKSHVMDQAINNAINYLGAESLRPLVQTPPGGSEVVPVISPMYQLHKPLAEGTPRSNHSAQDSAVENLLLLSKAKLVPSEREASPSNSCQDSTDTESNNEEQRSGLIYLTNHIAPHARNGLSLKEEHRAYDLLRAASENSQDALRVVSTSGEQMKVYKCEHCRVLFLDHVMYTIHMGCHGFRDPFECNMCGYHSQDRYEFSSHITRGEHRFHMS
Chain of Ikaros (Q96SW2 whole entry): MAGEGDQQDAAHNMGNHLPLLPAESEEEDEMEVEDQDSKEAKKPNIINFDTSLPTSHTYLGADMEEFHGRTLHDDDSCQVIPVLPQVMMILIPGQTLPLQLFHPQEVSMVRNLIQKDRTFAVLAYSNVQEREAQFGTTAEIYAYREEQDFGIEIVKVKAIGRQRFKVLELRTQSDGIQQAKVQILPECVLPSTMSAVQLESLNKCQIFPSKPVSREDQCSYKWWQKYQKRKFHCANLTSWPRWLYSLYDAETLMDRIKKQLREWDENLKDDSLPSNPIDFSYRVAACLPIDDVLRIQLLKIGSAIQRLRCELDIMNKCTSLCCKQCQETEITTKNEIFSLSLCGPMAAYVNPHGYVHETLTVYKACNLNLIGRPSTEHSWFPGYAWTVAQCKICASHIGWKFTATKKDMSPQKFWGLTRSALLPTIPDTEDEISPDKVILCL
Chain of Ikaros (Q16531 whole entry partner): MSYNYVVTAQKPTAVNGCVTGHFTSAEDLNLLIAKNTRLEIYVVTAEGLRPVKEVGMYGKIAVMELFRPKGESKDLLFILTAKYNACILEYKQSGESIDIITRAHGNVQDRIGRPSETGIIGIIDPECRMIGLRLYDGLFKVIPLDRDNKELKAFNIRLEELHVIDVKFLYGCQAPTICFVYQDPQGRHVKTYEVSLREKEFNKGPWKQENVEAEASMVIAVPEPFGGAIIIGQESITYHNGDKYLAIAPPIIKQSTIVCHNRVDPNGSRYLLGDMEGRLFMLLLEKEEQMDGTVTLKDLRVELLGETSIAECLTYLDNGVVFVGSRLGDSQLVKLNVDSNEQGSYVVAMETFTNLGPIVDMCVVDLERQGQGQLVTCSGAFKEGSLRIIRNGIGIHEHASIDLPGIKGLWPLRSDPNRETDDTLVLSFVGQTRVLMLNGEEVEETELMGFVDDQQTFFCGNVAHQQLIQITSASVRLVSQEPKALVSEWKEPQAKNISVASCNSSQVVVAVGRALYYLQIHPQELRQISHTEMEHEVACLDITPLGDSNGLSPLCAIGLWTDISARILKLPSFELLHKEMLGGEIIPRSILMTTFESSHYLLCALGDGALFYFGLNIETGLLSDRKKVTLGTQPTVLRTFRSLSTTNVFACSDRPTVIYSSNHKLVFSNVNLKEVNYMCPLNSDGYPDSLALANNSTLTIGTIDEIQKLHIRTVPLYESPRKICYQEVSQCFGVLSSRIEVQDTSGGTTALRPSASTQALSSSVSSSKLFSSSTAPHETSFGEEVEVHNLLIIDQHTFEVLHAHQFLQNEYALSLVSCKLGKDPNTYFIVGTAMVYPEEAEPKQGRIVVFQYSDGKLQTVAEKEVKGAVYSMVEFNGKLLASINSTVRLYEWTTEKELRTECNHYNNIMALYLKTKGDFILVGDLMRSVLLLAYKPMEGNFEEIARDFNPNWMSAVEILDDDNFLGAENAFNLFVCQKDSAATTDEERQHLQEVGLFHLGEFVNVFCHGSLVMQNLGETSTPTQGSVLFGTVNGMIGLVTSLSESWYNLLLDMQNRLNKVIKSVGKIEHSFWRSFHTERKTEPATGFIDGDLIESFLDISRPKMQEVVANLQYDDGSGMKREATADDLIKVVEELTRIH

Experiment [2] addresses Helios (Homo sapiens, UniProt Q96SW2+Q9UKS7). The experiment can be described thus: Helios Cellular Degradation Assay (Helios readout). The experiment is classed as cell-based. The arrangement: endogenous in cells; host or cells: Jurkat. Conditions: Jurkat cells, 72 h incubation, Helios-PE antibody staining, flow cytometry; read-out: Helios Jurkat IC50. In a few lines:
as §1

Molecules are shown by their SMILES.

Chain of Helios (Q9UKS7 whole entry): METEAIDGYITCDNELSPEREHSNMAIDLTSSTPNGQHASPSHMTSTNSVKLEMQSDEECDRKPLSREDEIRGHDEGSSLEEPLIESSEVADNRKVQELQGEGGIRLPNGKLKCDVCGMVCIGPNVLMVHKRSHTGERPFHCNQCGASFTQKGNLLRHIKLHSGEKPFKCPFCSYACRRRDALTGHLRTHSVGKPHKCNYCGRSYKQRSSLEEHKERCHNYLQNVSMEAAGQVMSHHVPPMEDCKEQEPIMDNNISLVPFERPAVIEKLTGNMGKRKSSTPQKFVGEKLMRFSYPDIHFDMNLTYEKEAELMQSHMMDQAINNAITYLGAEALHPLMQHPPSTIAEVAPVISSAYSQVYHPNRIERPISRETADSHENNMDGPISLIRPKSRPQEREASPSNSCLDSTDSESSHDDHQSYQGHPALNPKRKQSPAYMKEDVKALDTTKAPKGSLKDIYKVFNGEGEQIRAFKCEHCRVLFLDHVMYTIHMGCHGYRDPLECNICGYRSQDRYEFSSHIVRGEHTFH
Chain of Helios (Q96SW2 whole entry): as the sequence (Q96SW2 whole entry) above
Chain of Helios (Q16531 whole entry partner): as the sequence (Q16531 whole entry partner) above

`O=C1CCC(N2Cc3cc(-c4nc(O)cc5c(Cl)cccc45)ccc3C2=O)C(=O)N1` (centres unmarked) [Example 145, 3-(5-(5-chloro-3-hydroxyisoquinolin-1-yl)-1-oxoisoindolin-2-yl)piperidine-2,6-dione]: the results for the DC50 in experiment [1] and in experiment [2] were not below 20000 nM and 10 nM, respectively.
Turning to `COc1cc(C)cc(-c2ccc3c(c2)CN(C2CCC(=O)NC2=O)C3=O)n1` (centres unmarked) [Example 146, 3-(5-(6-methoxy-4-methylpyridin-2-yl)-1-oxoisoindolin-2-yl)piperidine-2,6-dione], the DC50 in experiment [1] is not below 20000 nM; in experiment [2], 190 nM.
In the case of `Cc1cc(O)nc(-c2ccc3c(c2)CN(C2CCC(=O)NC2=O)C3=O)c1` (centres unmarked) [Example 147, 3-(5-(6-hydroxy-4-methylpyridin-2-yl)-1-oxoisoindolin-2-yl)piperidine-2,6-dione], the DC50 in experiment [1] is not below 10000 nM; in experiment [2] it was 310 nM.
As for `Cc1cc(-c2ccc3c(c2)CN(C2CCC(=O)NC2=O)C3=O)nc(N)c1C#N` (centres unmarked) [Example 148, 2-amino-6-(2-(2,6-dioxopiperidin-3-yl)-1-oxoisoindolin-5-yl)-4-methylnicotinonitrile], the DC50 in experiment [1] was not below 10000 nM; in experiment [2] it was 10 nM.
On to `N#Cc1cc(N)nc(-c2ccc3c(c2)CN(C2CCC(=O)NC2=O)C3=O)c1` (centres unmarked) [Example 149, 2-amino-6-(2-(2,6-dioxopiperidin-3-yl)-1-oxoisoindolin-5-yl)isonicotinonitrile], for which the DC50 in experiment [1] is not below 10000 nM; in experiment [2] it was 190 nM.
In the case of `Nc1nc(-c2ccc3c(c2)CN(C2CCC(=O)NC2=O)C3=O)cc2c1CCCC2` (centres unmarked) [Example 150, 3-(5-(1-amino-5,6,7,8-tetrahydroisoquinolin-3-yl)-1-oxoisoindolin-2-yl)piperidine-2,6-dione], the DC50 is not below 10000 nM in experiment [1] and 32 nM in experiment [2].
Taken in the same sequence, the figures for `Cc1cc(-c2ccc3c(c2)CN(C2CCC(=O)NC2=O)C3=O)nc(N)c1C` (centres unmarked) [Example 151, 3-(5-(6-amino-4,5-dimethylpyridin-2-yl)-1-oxoisoindolin-2-yl)piperidine-2,6-dione] were not below 10000 nM and 10 nM.
On to `Cc1cc(-c2ccc3c(c2)CN(C2CCC(=O)NC2=O)C3=O)ncc1C#N` (centres unmarked) [Example 152, 6-(2-(2,6-dioxopiperidin-3-yl)-1-oxoisoindolin-5-yl)-4-methylnicotinonitrile], for which the DC50 in experiment [1] was not below 10000 nM; in experiment [2], 760 nM.
`COc1c(C)cc(-c2ccc3c(c2)CN(C2CCC(=O)NC2=O)C3=O)nc1N` (centres unmarked) [Example 153, 3-(5-(6-amino-5-methoxy-4-methylpyridin-2-yl)-1-oxoisoindolin-2-yl)piperidine-2,6-dione]: the DC50 was not below 10000 nM in experiment [1] and 70 nM in experiment [2].
Taken in the same sequence, the figures for `COc1cccc(-c2ccc3c(c2)CN(C2CCC(=O)NC2=O)C3=O)n1` (centres unmarked) [Example 155, 3-[5-(6-Methoxypyridin-2-yl)-1-oxo-2,3-dihydro-1H-isoindol-2-yl]piperidine-2,6-dione] were not below 20000 nM and 5330 nM.
Turning to `COc1nc(-c2ccc3c(c2)CN(C2CCC(=O)NC2=O)C3=O)cc2ccccc12` (centres unmarked) [Example 156, 3-[5-(1-Methoxyisoquinolin-3-yl)-1-oxo-2,3-dihydro-1H-isoindol-2-yl]piperidine-2,6-dione], the DC50 was not below 20000 nM in experiment [1] and 500 nM in experiment [2].
Taken in the same sequence, the figures for `O=C1CCC(N2Cc3cc(-c4cc5ccccc5c(=O)[nH]4)ccc3C2=O)C(=O)N1` (centres unmarked) [Example 157, 3-[1-Oxo-5-(1-oxo-1,2-dihydroisoquinolin-3-yl)-2,3-dihydro-1H-isoindol-2-yl]piperidine-2,6-dione] were not below 20000 nM and 110 nM.
As for `O=C1CCC(N2Cc3cc(-c4cc5c(ccn5Cc5ccccc5)cn4)ccc3C2=O)C(=O)N1` (centres unmarked) [Example 158, 3-(5-{1-Benzyl-1H-pyrrolo[3,2-c]pyridin-6-yl}-1-oxo-2,3-dihydro-1H-isoindol-2-yl) piperidine-2,6-dione], the DC50 in experiment [1] was not below 10000 nM; in experiment [2], 20 nM.
With `O=C1CCC(N2Cc3cc(-c4cc5[nH]ccc5cn4)ccc3C2=O)C(=O)N1` (centres unmarked) [Example 159, 3-(1-oxo-5-(1H-pyrrolo[3,2-c]pyridin-6-yl)isoindolin-2-yl)piperidine-2,6-dione], the DC50 is 320 nM in experiment [1] and 50 nM in experiment [2].
In the case of `O=C1CCC(N2Cc3cc(-c4nccc5[nH]ccc45)ccc3C2=O)C(=O)N1` (centres unmarked) [Example 160, 3-(1-oxo-5-(1H-pyrrolo[3,2-c]pyridin-4-yl)isoindolin-2-yl)piperidine-2,6-dione], the values for the DC50 in experiment [1] and in experiment [2] were not below 20000 nM and 70 nM, respectively.
Consider `O=C1CCC(N2Cc3cc(-c4nccc5c4ccn5Cc4ccccc4)ccc3C2=O)C(=O)N1` (centres unmarked) [Example 161, 3-(5-(1-benzyl-1H-pyrrolo[3,2-c]pyridin-4-yl)-1-oxoisoindolin-2-yl)piperidine-2,6-dione], for which the DC50 in experiment [1] amounted to 90 nM; in experiment [2], 20 nM.
`N#Cc1cccc(-c2ccc3c(c2)CN(C2CCC(=O)NC2=O)C3=O)n1` (centres unmarked) [Example 162, 6-(2-(2,6-dioxopiperidin-3-yl)-1-oxoisoindolin-5-yl)picolinonitrile]: the figures for the DC50 in experiment [1] and in experiment [2] were not below 20000 nM and 2460 nM, respectively.
For `Nc1cc(C(F)(F)F)cc(-c2ccc3c(c2)CN(C2CCC(=O)NC2=O)C3=O)n1` (centres unmarked) [Example 163, 3-(5-(6-amino-4-(trifluoromethyl)pyridin-2-yl)-1-oxoisoindolin-2-yl)piperidine-2,6-dione], the DC50 is not below 20000 nM in experiment [1] and 90 nM in experiment [2].
Consider `COc1cc(N)nc(-c2ccc3c(c2)CN(C2CCC(=O)NC2=O)C3=O)c1` (centres unmarked) [Example 164, 3-(5-(6-amino-4-methoxypyridin-2-yl)-1-oxoisoindolin-2-yl)piperidine-2,6-dione], for which the DC50 in experiment [1] is not below 20000 nM; in experiment [2], 40 nM.
Consider `Nc1cc(Cl)cc(-c2ccc3c(c2)CN(C2CCC(=O)NC2=O)C3=O)n1` (centres unmarked) [Example 165, 3-(5-(6-amino-4-chloropyridin-2-yl)-1-oxoisoindolin-2-yl)piperidine-2,6-dione], for which the DC50 was not below 20000 nM in experiment [1] and 30 nM in experiment [2].
In the case of `N#Cc1ccc(-c2ccc3c(c2)CN(C2CCC(=O)NC2=O)C3=O)nc1N` (centres unmarked) [Example 166, 2-amino-6-(2-(2,6-dioxopiperidin-3-yl)-1-oxoisoindolin-5-yl)nicotinonitrile], the values for the DC50 in experiment [1] and in experiment [2] were not below 20000 nM and 20 nM, respectively.
Taken in the same sequence, the figures for `CC(=O)Nc1nc(-c2ccc3c(c2)CN(C2CCC(=O)NC2=O)C3=O)cc(C)c1C` (centres unmarked) [Example 167, N-(6-(2-(2,6-dioxopiperidin-3-yl)-1-oxoisoindolin-5-yl)-3,4-dimethylpyridin-2-yl) acetamide] were more than 10000 nM and 50 nM.
In the case of `CCCc1cc(N)nc(-c2ccc3c(c2)CN(C2CCC(=O)NC2=O)C3=O)c1C#N` (centres unmarked) [Example 173, 6-amino-2-(2-(2,6-dioxopiperidin-3-yl)-1-oxoisoindolin-5-yl)-4-propylnicotinonitrile], the values for the DC50 in experiment [1] and in experiment [2] were not below 10000 nM and 120 nM, respectively.
Regarding `CC(C)c1cc(-c2ccc3c(c2)CN(C2CCC(=O)NC2=O)C3=O)nc(N)c1C#N` (centres unmarked) [Example 178, 2-amino-6-(2-(2,6-dioxopiperidin-3-yl)-1-oxoisoindolin-5-yl)-4-isopropylnicotinonitrile], the DC50 in experiment [1] is not below 10000 nM; in experiment [2], 70 nM.
For `CC(C)c1cc(N)nc(-c2ccc3c(c2)CN(C2CCC(=O)NC2=O)C3=O)c1C#N` (centres unmarked) [Example 179, 6-amino-2-(2-(2,6-dioxopiperidin-3-yl)-1-oxoisoindolin-5-yl)-4-isopropylnicotinonitrile], the DC50 in experiment [1] and in experiment [2] was not below 10000 nM each time.
`Cc1cc(C#N)c(-c2ccc3c(c2)CN(C2CCC(=O)NC2=O)C3=O)nc1N` (centres unmarked) [Example 180, 6-amino-2-(2-(2,6-dioxopiperidin-3-yl)-1-oxoisoindolin-5-yl)-5-methylnicotinonitrile]: the DC50 in experiment [1] is not below 10000 nM; in experiment [2] it was 20 nM.
For the molecule `COc1cc(C#N)c(N)nc1-c1ccc2c(c1)CN(C1CCC(=O)NC1=O)C2=O` (centres unmarked) [Example 181, 2-amino-6-(2-(2,6-dioxopiperidin-3-yl)-1-oxoisoindolin-5-yl)-5-methoxynicotinonitrile], the DC50 was not below 10000 nM in experiment [1] and 140 nM in experiment [2].
Taken in the same sequence, the figures for `N#Cc1cc(C2CC2)c(N)nc1-c1ccc2c(c1)CN(C1CCC(=O)NC1=O)C2=O` (centres unmarked) [Example 182, 6-amino-5-cyclopropyl-2-(2-(2,6-dioxopiperidin-3-yl)-1-oxoisoindolin-5-yl) nicotinonitrile] were not below 10000 nM and 70 nM.
As to `N#Cc1cc(C2CC2)c(-c2ccc3c(c2)CN(C2CCC(=O)NC2=O)C3=O)nc1N` (centres unmarked) [Example 183, 2-amino-5-cyclopropyl-6-(2-(2,6-dioxopiperidin-3-yl)-1-oxoisoindolin-5-yl) nicotinonitrile], the figures for the DC50 in experiment [1] and in experiment [2] were not below 10000 nM and 50 nM, respectively.
Taken in the same sequence, the figures for `Nc1cc(N2CCN(Cc3ccccc3)CC2)cc(-c2ccc3c(c2)CN(C2CCC(=O)NC2=O)C3=O)n1` (centres unmarked) [Example 184, 3-(5-(6-amino-4-(4-benzylpiperazin-1-yl)pyridin-2-yl)-1-oxoisoindolin-2-yl) piperidine-2,6-dione] were not below 10000 nM and not below 10000 nM.
With `CS(=O)(=O)N1CCN(c2cc(N)nc(-c3ccc4c(c3)CN(C3CCC(=O)NC3=O)C4=O)c2)CC1` (centres unmarked) [Example 185, 3-(5-(6-amino-4-(4-(methylsulfonyl)piperazin-1-yl)pyridin-2-yl)-1-oxoisoindolin-2-yl) piperidine-2,6-dione], the DC50 in experiment [1] was not below 10000 nM; in experiment [2], 6400 nM.
